Data from ChEMBL document CHEMBL1250456, “Synthesis and binding ability of 1,2,3-triazole-based triterpenoid receptors for recognition of Hg(2+) ion” (Bioorg Med Chem Lett, 2010).
Activity calls are given as the source filed them. No cut-off for these calls is given here.

What was measured:
[1] = Binding affinity to zinc ion by UV-vis titration analysis
[2] = Binding affinity to mercury ion by Hildebrand-Benesi equation analysis
[3] = Binding affinity to cadmium ion by UV-vis titration analysis
[4] = Binding affinity to copper ion by Hildebrand-Benesi equation analysis
[5] = Binding affinity to magnesium ion by UV-vis titration analysis

| Activity [1] | Ka [2] [×10⁴ /M] | Activity [3] | Ka [4] [×10³ /M] | Activity [5] | Compound |
| --- | --- | --- | --- | --- | --- |
| inactive | 2.7 | inactive | 5 | inactive | COC(=O)[C@@]1(C)CC[C@]2(C)CC[C@]3(C)C(=CC(=O)[C@@H]4[C@@]5(C)C[C@H](OC(=O)Cn6cc(COc7ccc8ccccc8c7C=O)nn6)[C@@H](OC(=O)Cn6cc(COc7ccc8ccccc8c7C=O)nn6)C(C)(C)[C@@H]5CC[C@]43C)[C@@H]2C1 |
| inactive | 3 | inactive | 1.6 | inactive | COC(=O)[C@@]1(C)CC[C@]2(C)CC[C@]3(C)C(=CC(=O)[C@@H]4[C@@]5(C)C[C@H](OC(=O)Cn6cc(COc7ccccc7C=O)nn6)[C@@H](OC(=O)Cn6cc(COc7ccccc7C=O)nn6)C(C)(C)[C@@H]5CC[C@]43C)[C@@H]2C1 |
